In PubChem BioAssay AID328 (DTP/NCI, 2004):
“And” between values parts separate entries of the source, which are not always exact repeats. Equal entries are not always repeated. Toxic doses and inconclusive results are not listed. How the source made its calls: active means survival T/C of 150% or more; inactive means T/C below 125% in these data.

Test system: BDF1 mice, P388 leukemia ip, median survival T/C
Assay: NCI In Vivo Anticancer Drug Screen. Data for tumor model P388 Leukemia (intraperitoneal) in B6D2F1 (BDF1) mice
Conditions: endpoint: median survival time, higher = longer survival
Method in brief: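 Transplantable tumour in mice; compound vs vehicle dosing; survival scored; ratio of treated to control reported.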

[1] = dose: 50.0 mg/kg/injection, schedule: Q01DX009 (ip), vehicle: saline
[2] = dose: 100.0 mg/kg/injection, schedule: Q01DX009 (ip), vehicle: saline
[3] = dose: 200.0 mg/kg/injection, schedule: Q01DX009 (ip), vehicle: saline
[4] = dose: 100.0 mg/kg/injection, schedule: Q01DX009 (ip), vehicle: saline with Tween-80
[5] = dose: 200.0 mg/kg/injection, schedule: Q01DX009 (ip), vehicle: saline with Tween-80
[6] = dose: 50.0 mg/kg/injection, schedule: Q04DX003 (ip), vehicle: saline
[7] = dose: 100.0 mg/kg/injection, schedule: Q04DX003 (ip), vehicle: saline
[8] = dose: 50.0 mg/kg/injection, schedule: Q01DX009 (ip), vehicle: saline with Tween-80
[9] = dose: 200.0 mg/kg/injection, schedule: Q04DX003 (ip), vehicle: saline
[10] = dose: 100.0 mg/kg/injection, schedule: Q01DX009 (ip), vehicle: Klucel (hydroxypropylcellulose) (HPC)
[11] = dose: 200.0 mg/kg/injection, schedule: Q01DX009 (ip), vehicle: Klucel (hydroxypropylcellulose) (HPC)
[12] = dose: 400.0 mg/kg/injection, schedule: Q01DX009 (ip), vehicle: saline with Tween-80

Measured: T/C

CC(C)(C)OC(=O)NC(CCSCC(=O)O)C(N)=O (stereo not given)
inactive: [1] 91 % of control | [2] 88 % of control | [3] 95 % of control

CN(C)P(=O)(N(C)C)N(C)CC[N+](C)(C)C
inactive: [1] 103 % of control | [2] 101 % of control | [3] 100 % of control

O=C1c2ccccc2C(=O)c2c(O)c(N3CCOCC3)cc(O)c21
inactive: dose: 1.0 mg/kg/injection, schedule: Q01DX009 (ip), vehicle: water 121 % of control | dose: 2.0 mg/kg/injection, schedule: Q01DX009 (ip), vehicle: water 104 % of control | dose: 4.0 mg/kg/injection, schedule: Q01DX009 (ip), vehicle: water 104 % of control | dose: 8.0 mg/kg/injection, schedule: Q01DX009 (ip), vehicle: water 89 % of control | dose: 16.0 mg/kg/injection, schedule: Q01DX009 (ip), vehicle: water 111 % of control | dose: 32.0 mg/kg/injection, schedule: Q01DX009 (ip), vehicle: water 113 % of control | [1] 90 % of control

O=C(Nc1ncn[nH]1)C(=O)Nc1ncn[nH]1
inactive: [4] 102 % of control | [5] 100 % of control

Cc1ccc(S(=O)(=O)N(C)c2ccccc2C(=O)O)cc1
inactive: dose: 100.0 mg/kg/injection, schedule: Q01DX001 (ip), vehicle: saline sonified 100 % of control | dose: 200.0 mg/kg/injection, schedule: Q01DX001 (ip), vehicle: saline sonified 95 % of control | dose: 400.0 mg/kg/injection, schedule: Q01DX001 (ip), vehicle: saline sonified 100 % of control

NS(=O)(=O)Cc1ccccc1
inactive: dose: 25.0 mg/kg/injection, schedule: Q04DX003 (ip), vehicle: saline 100 % of control | [6] 100 % of control | [7] 100 % of control

C=C(C(=O)OC1CC2CCC(C1)N2C)c1ccccc1 (stereo not given)
inactive: dose: 1.25 mg/kg/injection, schedule: Q01DX009 (ip), vehicle: saline 100 % of control | dose: 2.5 mg/kg/injection, schedule: Q01DX009 (ip), vehicle: saline 100 % of control | dose: 5.0 mg/kg/injection, schedule: Q01DX009 (ip), vehicle: saline 100 % of control | dose: 10.0 mg/kg/injection, schedule: Q01DX009 (ip), vehicle: saline 90 % of control

Cc1ccc(N2CCNCC2)cc1
inactive: dose: 6.25 mg/kg/injection, schedule: Q04DX003 (ip), vehicle: saline sonified 95 % of control | dose: 12.5 mg/kg/injection, schedule: Q04DX003 (ip), vehicle: saline sonified 100 % of control | dose: 25.0 mg/kg/injection, schedule: Q04DX003 (ip), vehicle: saline sonified 100 % of control

COc1c(O)ccc2c1c[n+](C)c1c3cc4c(cc3ccc21)OCO4
inactive: dose: 4.0 mg/kg/injection, schedule: Q01DX009 (ip), vehicle: saline 113 % of control | dose: 8.0 mg/kg/injection, schedule: Q01DX009 (ip), vehicle: saline 113 % of control | dose: 16.0 mg/kg/injection, schedule: Q01DX009 (ip), vehicle: saline 106 % of control

CCCN([Si](C)(C)C)[Si](C)(C)C
inactive: [8] 107 % of control | [4] 107 % of control | dose: 100.0 mg/kg/injection, schedule: Q04DX003 (ip), vehicle: saline with Tween-80 100 % of control | [5] 100 % of control | dose: 200.0 mg/kg/injection, schedule: Q04DX003 (ip), vehicle: saline with Tween-80 104 % of control

CC(C)(C)OC(=O)CNC(=O)CCl
inactive: [6] 100 % of control | [7] 100 % of control | [9] 108 % of control

O=C1c2cccc3cc([N+](=O)[O-])cc(c23)C(=O)N1CCN1CCCC1
active: dose: 6.25 mg/kg/injection, schedule: Q01DX009 (ip), vehicle: saline with Tween-80 157 % of control | dose: 12.5 mg/kg/injection, schedule: Q01DX009 (ip), vehicle: saline with Tween-80 177 % of control

CN(C)P(=O)(N(C)C)N(C)C (tested in a mixture with another compound)
inactive: dose: 50.0 mg/kg/injection, schedule: Q01DX009 (ip), vehicle: Klucel (hydroxypropylcellulose) (HPC) 98 % of control | [10] 105 % of control | [11] 105 % of control

NCCCNCCCCNCCCN
inactive: dose: 50.0 mg/kg/injection, schedule: Q01DX001 (ip), vehicle: saline 110 % of control

CCOC(=O)c1c(C(=O)OCC)c(C)n(NC(=S)NC)c1C
inactive: dose: 75.0 mg/kg/injection, schedule: Q01DX009 (ip), vehicle: saline with Tween-80 103 % of control | dose: 150.0 mg/kg/injection, schedule: Q01DX009 (ip), vehicle: saline with Tween-80 89 % of control | dose: 300.0 mg/kg/injection, schedule: Q01DX009 (ip), vehicle: saline with Tween-80 93 % of control

[N-]=[N+]=NC(=O)C1(Br)CCC2c3ccccc3C([N+](=O)[O-])(C1)c1ccccc12 (stereo not given)
inactive: [7] 95 % of control | [9] 100 % of control | dose: 400.0 mg/kg/injection, schedule: Q04DX003 (ip), vehicle: saline 109 % of control

O=C(Cn1ccnc1[N+](=O)[O-])NCc1ccccc1
inactive: [8] 99 % of control | [4] 94 % of control | [5] 100 % of control

CCOC(=O)Oc1ccc(/C=N/NC(N)=S)nc1
active: [8] 169 % of control | [4] 178 % of control

ClC1=C(Cl)C(Cl)(C2(Cl)C(Cl)=C(Cl)C(Cl)=C2Cl)C(Cl)=C1Cl
inactive: dose: 100.0 mg/kg/injection, schedule: Q01DX009 (ip), vehicle: gum acacia 123 % of control | dose: 100.0 mg/kg/injection, schedule: Q04DX003 (ip), vehicle: gum acacia 108 % of control | dose: 200.0 mg/kg/injection, schedule: Q04DX003 (ip), vehicle: gum acacia 116 % of control | dose: 400.0 mg/kg/injection, schedule: Q04DX003 (ip), vehicle: gum acacia 104 % of control

Oc1ccc2ccccc2c1N=Nc1ccccc1
inactive: [10] 87 % of control | dose: 100.0 mg/kg/injection, schedule: Q04DX003 (ip), vehicle: Klucel (hydroxypropylcellulose) (HPC) 109 % of control | [11] 104 % of control | dose: 200.0 mg/kg/injection, schedule: Q04DX003 (ip), vehicle: Klucel (hydroxypropylcellulose) (HPC) 104 % of control | dose: 400.0 mg/kg/injection, schedule: Q01DX009 (ip), vehicle: Klucel (hydroxypropylcellulose) (HPC) 91 % of control | dose: 400.0 mg/kg/injection, schedule: Q04DX003 (ip), vehicle: Klucel (hydroxypropylcellulose) (HPC) 104 % of control

CC1(c2ccc(-c3ccccc3)cc2)NC(=O)NC1=O (stereo not given)
inactive: [4] 91 % of control | [5] 95 % of control | [12] 88 % of control

CC1=CC(=O)C(CO)=CC1=O
inactive: dose: 0.38 mg/kg/injection, schedule: Q01DX009 (ip), vehicle: saline with Tween-80 105 % of control | dose: 0.75 mg/kg/injection, schedule: Q01DX009 (ip), vehicle: saline with Tween-80 108 % of control | dose: 1.5 mg/kg/injection, schedule: Q01DX009 (ip), vehicle: saline with Tween-80 110 % of control | dose: 3.0 mg/kg/injection, schedule: Q01DX009 (ip), vehicle: saline with Tween-80 115 % of control | dose: 6.0 mg/kg/injection, schedule: Q01DX009 (ip), vehicle: saline with Tween-80 107 % of control

C=CCOc1ccccc1N/N=C(\Cl)C(=O)OCC
inactive: [8] 119 % of control

N#CCCN(C(=S)Nc1ccc(Cl)c(Cl)c1)C1CCCCC1
inactive: [8] 98 % of control and 117 % of control | [4] 100 % of control and 119 % of control | [5] 103 % of control and 119 % of control | [12] 106 % of control

ClCCN(CCCl)c1cc(OCc2ccccc2)cc(OCc2ccccc2)c1
inactive: dose: 6.25 mg/kg/injection, schedule: Q01DX009 (ip), vehicle: water 91 % of control | dose: 12.5 mg/kg/injection, schedule: Q01DX009 (ip), vehicle: water 88 % of control | dose: 25.0 mg/kg/injection, schedule: Q01DX009 (ip), vehicle: water 86 % of control | dose: 25.0 mg/kg/injection, schedule: Q04DX003 (ip), vehicle: water 91 % of control | dose: 50.0 mg/kg/injection, schedule: Q01DX009 (ip), vehicle: water 88 % of control | dose: 50.0 mg/kg/injection, schedule: Q04DX003 (ip), vehicle: water 89 % of control | dose: 100.0 mg/kg/injection, schedule: Q01DX009 (ip), vehicle: water 98 % of control | dose: 100.0 mg/kg/injection, schedule: Q04DX003 (ip), vehicle: water 121 % of control | dose: 200.0 mg/kg/injection, schedule: Q01DX009 (ip), vehicle: water 92 % of control and 97 % of control | dose: 200.0 mg/kg/injection, schedule: Q04DX003 (ip), vehicle: water 97 % of control | dose: 400.0 mg/kg/injection, schedule: Q04DX003 (ip), vehicle: water 89 % of control
